# Assay results: US9642889B2, “Macrocyclic inhibitors of Flaviviridae viruses” (Selcia Limited, priority 2012, dated 2017)
# Like-named read-outs stand apart in the source and are kept apart here.
# What was measured:
# [1] = rcm bond
# [2] = rcm bond; 22-membered ring; Hoveyda-Grubbs II; 1,2-dichloroethane; 3.01 mM; 80.0 °C; 2 steps
# cyclophilin A = cyclophilin A (Homo sapiens, UniProt P62937); assay: Cyclophilin A TR-FRET competitive binding assay; conditions: competition with CsA-Cy5 for His-tagged CypA, two-hour incubation
# Chain of cyclophilin A (P62937 whole entry, species assumed): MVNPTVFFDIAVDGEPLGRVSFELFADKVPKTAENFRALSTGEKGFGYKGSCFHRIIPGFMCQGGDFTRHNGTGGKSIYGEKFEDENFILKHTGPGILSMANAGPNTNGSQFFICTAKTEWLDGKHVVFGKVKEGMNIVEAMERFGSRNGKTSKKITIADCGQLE
# Description: Cyclophilin A TR-FRET Competitive Binding Assay
# Inhibitor potency was measured using a competitive binding assay with a time-resolved fluorescence resonance energy transfer (TR-FRET) readout. […] An IC50 value was calculated using a four-parameter logistic fit.
# [3] = system: Huh-7 HCV replicon cells (1b replicon); assay: anti-HCV activity in Huh-7 cell line harboring a HCV replicon (luciferase readout); format: cell-based; conditions: Hepatitis C virus; for EC50: Huh-7, 72 h, inhibition of viral replication, Huh-7 HCV replicon cells, 3 days, read-out: EC50; for inhibition at 1 µM: Huh-7, read-out: Replicon 1b % inhibition at 1 μM, 1b replicon, 1 μM compound
# [4] = rcm bond; 22-membered ring; Hoveyda-Grubbs II; 1,2-dichloroethane; 80.0 °C
compound,measurement,setting,value
CC(C)[C@@H]1OC(=O)CC=Cc2cc3cc(ccc3cn2)[C@@H](C)NC(=O)[C@@H]2CCCN(N2)C(=O)[C@H](C)NC1=O,"ring closure, yield of all isomers","[1]; from C=CCC(=O)O[C@H](C(=O)N[C@@H](C)C(=O)N1CCC[C@@H](C(=O)N[C@H](C)c2ccc3cnc(C=C)cc3c2)N1)C(C)C, Hoveyda-Grubbs 2nd generation, toluene, 2.83 mM, 110.0 °C, 5.0 h",1%
CO[C@@H]1CCC=Cc2cccc(c2)[C@@H](C)NC(=O)[C@@H]2CCCN(N2)C(=O)[C@H](C)NC(=O)[C@H](C(C)C)OC(=O)[C@@H]1C,"ring closure, yield of all isomers","[1]; from C=CCC[C@@H](OC)[C@@H](C)C(=O)O[C@H](C(=O)N[C@@H](C)C(=O)N1CCC[C@@H](C(=O)N[C@H](C)c2cccc(C=C)c2)N1)C(C)C, Hoveyda-Grubbs 2nd generation, 1,2-dichloroethane, 2.96 mM, 85.0 °C, 5.0 h",32%
CC(C)[C@@H]1OC(=O)[C@H](C)[C@H](O[Si](C)(C)C(C)(C)C)CC/C=C/c2cccc(c2)[C@@H](C)NC(=O)[C@@H]2CCCN(N2)C(=O)[C@H](C)NC1=O,"ring closure, isolated yield",[2],16%
same,"ring closure, yield of all isomers","[1]; from C=CCC[C@@H](O[Si](C)(C)C(C)(C)C)[C@@H](C)C(=O)O[C@H](C(=O)N[C@@H](C)C(=O)N1CCC[C@@H](C(=O)N[C@H](C)c2cccc(C=C)c2)N1)C(C)C, Hoveyda-Grubbs 2nd generation catalyst, 1,2-dichloroethane, 3.01 mM, 80.0 °C, 2.0 h, 2 steps",16%
"CC(C)[C@H]1C(=O)N[C@@H](C)C(=O)N2CCC[C@H](N2)C(=O)N[C@H](C)c2cccc(c2)/C=C/CCCCC(=O)N1C [Compound 17, (E)-(2R,5S,11 S,14S)-14-Isopropyl-2,11,15-trimethyl-3,9,12,15,28-pentaaza-tricyclo[21.3.1.1*5,9*]octacosa-1 (27),21,23,25-tetraene-4,10,13,16-tetraone]",IC50,cyclophilin A,101 to 1000 nM
same,EC50,[3],1100 to 10000 nM
same,inhibition at 1 µM,[3],39%
same,"ring closure, yield of all isomers","[1]; from C=CCCCCC(=O)N(C)[C@H](C(=O)N[C@@H](C)C(=O)N1CCC[C@@H](C(=O)N[C@H](C)c2cccc(C=C)c2)N1)C(C)C, Hoveyda-Grubbs 2nd generation catalyst, 1,2-dichloroethane, 3.33 mM, 80.0 °C, 3.0 h",43%
CC(C)[C@@H]1NS(=O)(=O)CC=Cc2cc3cc(ccc3cn2)[C@@H](C)OC(=O)[C@@H]2CCCN(N2)C(=O)[C@H](C)NC1=O,"ring closure, yield of all isomers","[1]; from C=CCS(=O)(=O)N[C@H](C(=O)N[C@@H](C)C(=O)N1CCC[C@@H](C(=O)O[C@H](C)c2ccc3cnc(C=C)cc3c2)N1)C(C)C, Hoveyda-Grubbs 2nd Generation Catalyst, toluene, 5.0 mM, 110.0 °C, 2.0 h",13%
CC(C)[C@@H]1OC(=O)C(C)(C)CC=Cc2cc3cc(ccc3cn2)[C@@H](C)NC(=O)[C@@H]2CCCN(N2)C(=O)[C@H](C)NC1=O,"ring closure, yield of all isomers","[1]; from C=CCC(C)(C)C(=O)O[C@H](C(=O)N[C@@H](C)C(=O)N1CCC[C@@H](C(=O)N[C@H](C)c2ccc3cnc(C=C)cc3c2)N1)C(C)C, Hoveyda-Grubbs 2nd generation catalyst, toluene, 3.08 mM, 110.0 °C, 3.0 h",15%
CC(C)[C@@H]1NCCCC=Cc2cc3cc(ccc3cn2)[C@@H](C)OC(=O)[C@@H]2CCCN(N2)C(=O)[C@H](C)NC1=O,"ring closure, yield of all isomers","[1]; from C=CCCCN[C@H](C(=O)N[C@@H](C)C(=O)N1CCC[C@@H](C(=O)O[C@H](C)c2ccc3cnc(C=C)cc3c2)N1)C(C)C, Hoveyda-Grubbs 2nd generation catalyst, toluene, 2.97 mM, 110.0 °C, 1.25 h",56%
"CC(C)[C@@H]1OC(=O)CCCC/C=C/c2cccc(c2)[C@@H](C)NC(=O)[C@@H]2CCCN(N2)C(=O)[C@H](C)NC1=O [Compound 8, (E)-(2R,5S,11S,14S)-14-Isopropyl-2,11-dimethyl-15-oxa-3,9,12,28-tetraaza-tricyclo[21.3.1.1*5,9*]octacosa-1 (27),21,23,25-tetraene-4,10,13,16-tetraone]",IC50,cyclophilin A,< 100 nM
same,"ring closure, yield after HPLC",[4],15%
same,EC50,[3],< 1000 nM
same,inhibition at 1 µM,[3],95%
same,"ring closure, yield of all isomers","[1]; from C=CCCCCC(=O)O[C@H](C(=O)N[C@@H](C)C(=O)N1CCC[C@@H](C(=O)N[C@H](C)c2cccc(C=C)c2)N1)C(C)C, Hoveyda-Grubbs 2nd generation catalyst, 1,2-dichloroethane, 80.0 °C, 2.3 h",15%
CCC[C@@H]1CC=Cc2cc3cc(ccc3cn2)[C@@H](C)NC(=O)[C@@H]2CCCN(N2)C(=O)[C@H](C)NC(=O)[C@H](C(C)C)OC1=O,"ring closure, yield of all isomers","[1]; from C=CC[C@@H](CCC)C(=O)O[C@H](C(=O)N[C@@H](C)C(=O)N1CCC[C@@H](C(=O)N[C@H](C)c2ccc3cnc(C=C)cc3c2)N1)C(C)C, Hoveyda-Grubbs 2nd generation, toluene, 3.02 mM, 110.0 °C, 3.5 h",6%
CC(C)[C@@H]1OC(=O)[C@H](C)C=Cc2cc3cc(ccc3cn2)[C@@H](C)NC(=O)[C@@H]2CCCN(N2)C(=O)[C@H](C)NC1=O,"ring closure, yield of all isomers","[1]; from C=Cc1cc2cc([C@@H](C)NC(=O)[C@@H]3CCCN(C(=O)[C@H](C)NC(=O)[C@@H](OC(=O)[C@H](C)/C=C/C)C(C)C)N3)ccc2cn1, Hoveyda-Grubbs 2nd generation, toluene, 2.99 mM, 125.0 °C, 5.75 h",1%
CC(C)[C@@H]1OCCCC=Cc2cc3cc(ccc3cn2)[C@@H](C)OC(=O)[C@@H]2CCCN(N2)C(=O)[C@H](C)NC1=O,"ring closure, yield of all isomers","[1]; from C=CCCCO[C@H](C(=O)N[C@@H](C)C(=O)N1CCC[C@@H](C(=O)O[C@H](C)c2ccc3cnc(C=C)cc3c2)N1)C(C)C, Hoveyda-Grubbs 2nd Generation Catalyst, toluene, 3.0 mM, 100.0 °C, 0.58 h",35%
